Measurements taken from PubChem BioAssay (NCI).
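Growth conditions: 96-well plates. Treatment: test compound, 48 hours, 5 concentrations. Analysis: linear interpolation between bracketing concentrations; unreached endpoints set to highest concentration. Abbreviation: GI50, concentration required for 50% inhibition of growth. TGI denotes the concentration required for complete inhibition of growth.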

Tests used:
Test in all cases: growth of human tumour cells (NCI), 48 h
SK-MEL-2 melanoma = test system: SK-MEL-2 melanoma
MDA-MB-231 breast = test system: MDA-MB-231 breast
SK-MEL-28 melanoma = test system: SK-MEL-28 melanoma
OVCAR-5 ovarian = test system: OVCAR-5 ovarian
SF-268 CNS = test system: SF-268 CNS
NCI-H522 lung = test system: NCI-H522 lung
LOX IMVI melanoma = test system: LOX IMVI melanoma
HT29 colon = test system: HT29 colon
HS 578T breast = test system: HS 578T breast
KM12 colon = test system: KM12 colon
NCI-H226 lung = test system: NCI-H226 lung
EKVX NSCLC = test system: EKVX NSCLC
RXF 393 renal = test system: RXF 393 renal
OVCAR-3 ovarian = test system: OVCAR-3 ovarian
MDA-MB-435 = test system: MDA-MB-435
T-47D breast = test system: T-47D breast
SNB-19 CNS = test system: SNB-19 CNS
HCC-2998 colon = test system: HCC-2998 colon
UACC-62 melanoma = test system: UACC-62 melanoma
TK-10 renal = test system: TK-10 renal
IGROV1 ovarian = test system: IGROV1 ovarian
DU-145 prostate = test system: DU-145 prostate
NCI-H460 lung = test system: NCI-H460 lung
U251 CNS = test system: U251 CNS
CCRF-CEM leukemia = test system: CCRF-CEM leukemia
SW-620 colon = test system: SW-620 colon
SN12C renal = test system: SN12C renal
SF-295 CNS = test system: SF-295 CNS
SNB-75 CNS = test system: SNB-75 CNS
786-0 renal = test system: 786-0 renal
MOLT-4 leukemia = test system: MOLT-4 leukemia
HOP-92 NSCLC = test system: HOP-92 NSCLC
HOP-62 NSCLC = test system: HOP-62 NSCLC
K-562 leukemia = test system: K-562 leukemia
A498 renal = test system: A498 renal
SK-OV-3 ovarian = test system: SK-OV-3 ovarian
UACC-257 melanoma = test system: UACC-257 melanoma
OVCAR-4 ovarian = test system: OVCAR-4 ovarian
OVCAR-8 ovarian = test system: OVCAR-8 ovarian
HCT-116 colon = test system: HCT-116 colon
M14 melanoma = test system: M14 melanoma
MCF7 breast = test system: MCF7 breast
COLO 205 colon = test system: COLO 205 colon
NCI/ADR-RES ovarian = test system: NCI/ADR-RES ovarian
HCT-15 colon = test system: HCT-15 colon
HL-60(TB) leukemia = test system: HL-60(TB) leukemia
MALME-3M melanoma = test system: MALME-3M melanoma
UO-31 renal = test system: UO-31 renal
RPMI-8226 leukemia = test system: RPMI-8226 leukemia
BT-549 breast = test system: BT-549 breast
SF-539 CNS = test system: SF-539 CNS
PC-3 prostate = test system: PC-3 prostate
SK-MEL-5 melanoma = test system: SK-MEL-5 melanoma
A549 NSCLC = test system: A549 NSCLC
ACHN renal = test system: ACHN renal
CAKI-1 renal = test system: CAKI-1 renal
NCI-H23 lung = test system: NCI-H23 lung
SR leukemia = test system: SR leukemia

SMILES: Cc1nc2cnc(N)c(C#Cc3cncc(C(=O)Nc4ccc(CN5CCN(C)CC5)c(C(F)(F)F)c4)c3)c2nc1C
- GI50 (SK-MEL-2 melanoma): 187 nM
- TGI (SK-MEL-2 melanoma): 817 nM
- GI50 (MDA-MB-231 breast): 209 nM
- TGI (MDA-MB-231 breast): 2130 nM
- GI50 (SK-MEL-28 melanoma): 166 nM
- TGI (SK-MEL-28 melanoma): 1320 nM
- GI50 (OVCAR-5 ovarian): 304 nM
- TGI (OVCAR-5 ovarian): 11 µM
- GI50 (SF-268 CNS): 640 nM
- TGI (SF-268 CNS): 10.3 µM
- GI50 (NCI-H522 lung): 276 nM
- TGI (NCI-H522 lung): 3.86 µM
- GI50 (LOX IMVI melanoma): 101 nM
- TGI (LOX IMVI melanoma): 1050 nM
- GI50 (HT29 colon): 45.6 nM
- TGI (HT29 colon): 2720 nM
- GI50 (HS 578T breast): 541 nM
- TGI (HS 578T breast): 5.66 µM
- TGI (KM12 colon): 1440 nM
- GI50 (NCI-H226 lung): 188 nM
- TGI (NCI-H226 lung): 2610 nM
- GI50 (EKVX NSCLC): 739 nM
- TGI (EKVX NSCLC): 12.6 µM
- GI50 (RXF 393 renal): 515 nM
- TGI (RXF 393 renal): 1930 nM
- GI50 (OVCAR-3 ovarian): 824 nM
- TGI (OVCAR-3 ovarian): 9.66 µM
- GI50 (MDA-MB-435): 140 nM
- TGI (MDA-MB-435): 6 µM
- GI50 (T-47D breast): 3.35 µM
- TGI (T-47D breast): 26 µM
- GI50 (SNB-19 CNS): 4.36 µM
- TGI (SNB-19 CNS): 16.9 µM
- GI50 (HCC-2998 colon): 651 nM
- TGI (HCC-2998 colon): 13.1 µM
- GI50 (UACC-62 melanoma): 116 nM
- TGI (UACC-62 melanoma): 1070 nM
- GI50 (TK-10 renal): 496 nM
- TGI (TK-10 renal): 3.2 µM
- GI50 (IGROV1 ovarian): 266 nM
- TGI (IGROV1 ovarian): 1210 nM
- GI50 (DU-145 prostate): 409 nM
- TGI (DU-145 prostate): 11.2 µM
- GI50 (NCI-H460 lung): 478 nM
- TGI (NCI-H460 lung): 11.7 µM
- GI50 (U251 CNS): 2520 nM
- TGI (U251 CNS): 19.5 µM
- GI50 (CCRF-CEM leukemia): 2120 nM
- TGI (CCRF-CEM leukemia): 16.7 µM
- GI50 (SW-620 colon): 279 nM
- TGI (SW-620 colon): 3.21 µM
- GI50 (SN12C renal): 381 nM
- TGI (SN12C renal): 11.8 µM
- GI50 (SF-295 CNS): 3.02 µM
- TGI (SF-295 CNS): 19.6 µM
- GI50 (SNB-75 CNS): 1350 nM
- TGI (SNB-75 CNS): 3.39 µM
- GI50 (786-0 renal): 2580 nM
- TGI (786-0 renal): 14.8 µM
- GI50 (MOLT-4 leukemia): 859 nM
- TGI (MOLT-4 leukemia): 18.3 µM
- GI50 (HOP-92 NSCLC): 64.6 nM
- TGI (HOP-92 NSCLC): 566 nM
- GI50 (HOP-62 NSCLC): 738 nM
- TGI (HOP-62 NSCLC): 10.2 µM
- TGI (K-562 leukemia): 8.18 µM
- GI50 (A498 renal): 180 nM
- TGI (A498 renal): 1170 nM
- GI50 (SK-OV-3 ovarian): 1630 nM
- TGI (SK-OV-3 ovarian): 9.15 µM
- GI50 (UACC-257 melanoma): 189 nM
- TGI (UACC-257 melanoma): 1740 nM
- GI50 (OVCAR-4 ovarian): 119 nM
- TGI (OVCAR-4 ovarian): 6.17 µM
- GI50 (OVCAR-8 ovarian): 1430 nM
- TGI (OVCAR-8 ovarian): 13.8 µM
- GI50 (HCT-116 colon): 219 nM
- TGI (HCT-116 colon): 1570 nM
- GI50 (M14 melanoma): 90.3 nM
- TGI (M14 melanoma): 339 nM
- GI50 (MCF7 breast): 161 nM
- TGI (MCF7 breast): 4.04 µM
- GI50 (COLO 205 colon): 55.8 nM
- TGI (COLO 205 colon): 634 nM
- GI50 (NCI/ADR-RES ovarian): 7.56 µM
- TGI (NCI/ADR-RES ovarian): 23.8 µM
- GI50 (HCT-15 colon): 912 nM
- TGI (HCT-15 colon): 10.9 µM
- GI50 (HL-60(TB) leukemia): 138 nM
- TGI (HL-60(TB) leukemia): 3.8 µM
- GI50 (MALME-3M melanoma): 33.9 nM
- TGI (MALME-3M melanoma): 163 nM
- GI50 (UO-31 renal): 1280 nM
- TGI (UO-31 renal): 5.67 µM
- GI50 (RPMI-8226 leukemia): 1650 nM
- TGI (RPMI-8226 leukemia): 8.51 µM
- GI50 (BT-549 breast): 2000 nM
- TGI (BT-549 breast): 11.8 µM
- GI50 (SF-539 CNS): 313 nM
- TGI (SF-539 CNS): 3.69 µM
- GI50 (PC-3 prostate): 1480 nM
- TGI (PC-3 prostate): 17.4 µM
- GI50 (SK-MEL-5 melanoma): 748 nM
- TGI (SK-MEL-5 melanoma): 6.07 µM
- GI50 (A549 NSCLC): 614 nM
- TGI (A549 NSCLC): 5.71 µM
- GI50 (ACHN renal): 564 nM
- TGI (ACHN renal): 5.9 µM
- GI50 (CAKI-1 renal): 310 nM
- TGI (CAKI-1 renal): 1540 nM
- GI50 (NCI-H23 lung): 342 nM
- TGI (NCI-H23 lung): 8.67 µM
- GI50 (SR leukemia): 1670 nM
- TGI (SR leukemia): 10.9 µM
